Measured values published in patent publication US20070037752A1, “Novel alanyl-amino peptidase inhibitors for functionally influencing different cells and treating immunological, inflammatory, neuronal, and other diseases” (priority 2003, published 2007).
Where two headings read alike, the source gives them in different places. Values belong to the molecule of their own block, whether it stands above or below them.

Target: alanyl aminopeptidases (APN) (Homo sapiens, UniProt P15144)
Assay: Inhibition of alanyl aminopeptidase enzymatic activity, fluorogenic substrate (Ala)2-rhodamine 110
Assay type: biochemical
Description: The inhibition characteristics measured are referred to as IC-50 values or ID50 values (the latter marked with “*”) for said enzyme. The enzymatic activity was determined by means of the fluorogenic substrate/product (Ala)2-rhodamine 110.

[1] = Table 9, unstarred values, read-out: IC50APN
[2] = Table 3, unstarred values, read-out: IC50APN
[3] = Table 9, starred values = ID50, read-out: ID50 APN (values marked with *)
[4] = Table 4, unstarred values, read-out: IC50APN
[5] = Table 3, starred values = ID50, read-out: ID50 APN (values marked with *)

Chain of alanyl aminopeptidases (APN) (P15144 whole entry, species assumed): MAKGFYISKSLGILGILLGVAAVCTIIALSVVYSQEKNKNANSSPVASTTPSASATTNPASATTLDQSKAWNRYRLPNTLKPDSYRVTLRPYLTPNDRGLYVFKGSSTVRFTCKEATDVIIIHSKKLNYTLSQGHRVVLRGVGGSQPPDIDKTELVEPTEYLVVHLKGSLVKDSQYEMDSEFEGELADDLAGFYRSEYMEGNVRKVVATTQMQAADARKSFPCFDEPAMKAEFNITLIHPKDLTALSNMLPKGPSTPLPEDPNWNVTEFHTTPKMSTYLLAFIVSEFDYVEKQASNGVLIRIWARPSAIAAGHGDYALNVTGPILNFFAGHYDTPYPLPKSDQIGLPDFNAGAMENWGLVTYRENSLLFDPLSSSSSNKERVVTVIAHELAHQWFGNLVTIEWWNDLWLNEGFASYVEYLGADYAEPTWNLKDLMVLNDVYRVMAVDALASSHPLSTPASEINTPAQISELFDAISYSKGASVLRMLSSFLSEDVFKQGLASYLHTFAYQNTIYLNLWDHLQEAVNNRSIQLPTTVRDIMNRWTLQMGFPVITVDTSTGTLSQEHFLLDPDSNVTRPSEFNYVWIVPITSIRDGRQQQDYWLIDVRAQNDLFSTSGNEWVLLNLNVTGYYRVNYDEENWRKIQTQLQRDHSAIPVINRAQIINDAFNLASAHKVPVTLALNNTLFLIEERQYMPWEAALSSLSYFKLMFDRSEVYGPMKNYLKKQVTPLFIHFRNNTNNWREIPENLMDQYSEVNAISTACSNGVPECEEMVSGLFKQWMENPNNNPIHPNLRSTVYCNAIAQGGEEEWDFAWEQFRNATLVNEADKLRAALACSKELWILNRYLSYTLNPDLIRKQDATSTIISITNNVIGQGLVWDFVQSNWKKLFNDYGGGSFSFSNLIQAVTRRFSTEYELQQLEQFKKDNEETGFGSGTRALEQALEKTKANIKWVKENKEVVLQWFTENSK

Structure (SMILES): N/C(=N/OS(=O)(=O)c1ccc(C(F)(F)F)cc1)C1CSCCS1 (centres unmarked) [A9.031]
IC50 [1]: 13.4 µM

Structure (SMILES): NNC(=O)c1ccc(NS(=O)(=O)c2cccs2)cc1 [A6.004]
IC50 (Table 6, read-out: IC50APN): 11.8 µM

Structure (SMILES): CCn1c(/C=C/c2ccco2)nc2ccccc21 [A3.250]
IC50 [2]: 46.6 µM

Structure (SMILES): CCOC(=O)C1=C(N)NC2=C(CCCC2)C12C(=O)Nc1ccccc12 (centres unmarked) [A3.202]
IC50 [2]: 33.6 µM

Structure (SMILES): COc1ccc(C[C@@H](N)C(=O)N[C@H]2[C@H](O)[C@H](n3cnc4c(N(C)C)ncnc43)O[C@@H]2CO)cc1 [A12.037]
IC50 (Table 12, read-out: IC50APN): 20.9 µM

Structure (SMILES): COC(=O)N/N=C(C)\C=C\c1ccco1 [A3.059]
IC50 [2]: 13.5 µM

Structure (SMILES): CC(C)c1cc(C(=O)N/N=C/c2ccco2)[nH]n1 [A4.040]
IC50 [4]: 16.6 µM

Structure (SMILES): O=[N+]([O-])c1ncn(CN2CCOCC2)n1 [A9.090]
IC50 [1]: 36.8 µM

Structure (SMILES): CCc1ccc(NC(=O)C2CCN(S(=O)(=O)c3ccc(Cl)cc3)CC2)cc1 [A9.114]
IC50 [3]: 80.4 µM

Structure (SMILES): O=C(CS(=O)(=O)c1ccc(Cl)cc1)NO [A6.003]
IC50 (Table 6, read-out: IC50APN): 11.5 µM

Structure (SMILES): CC1CC(=O)N(C(=O)CCBr)c2ccc([N+](=O)[O-])cc2N1C(=O)CCBr (centres unmarked) [A10.008]
IC50 (Table 10, read-out: IC50APN): 99.8 µM

Structure (SMILES): O=C(/C=C/c1ccco1)c1ccccc1 [A3.166]
IC50 [2]: 27.3 µM

Structure (SMILES): CC1=C(C#N)C(=O)N(CC(C)O)C(=O)/C1=C/c1ccc(-c2cccc(Cl)c2C)o1 (centres unmarked) [A3.175]
IC50 [2]: 28.6 µM

Structure (SMILES): CCCOC(=O)c1cc(-c2ccc(/C=C3\C(=O)N(CCO)C(=O)C(C#N)=C3C)o2)ccc1Cl [A13.023]
IC50 (Table 13, read-out: IC50APN): 54 µM

Structure (SMILES): Cn1c(=O)c2c(ncn2CC(=O)N/N=C/C=C\c2ccco2)n(C)c1=O [A8.037]
IC50 (Table 8, starred values = ID50, read-out: ID50 APN (values marked with *)): 79.8 µM

Structure (SMILES): CC1=C(C#N)C(=O)N(CCCO)C(=O)/C1=C\c1ccc(-c2ccc(Br)cc2)o1 [A12.030]
IC50 (Table 12, read-out: IC50APN): 16 µM

Structure (SMILES): CN/C=C1\C=C(c2ccccc2)OC1=S [A7.001]
IC50 (Table 7, read-out: IC50APN): 6 µM

Structure (SMILES): C/C(=N\NC(=O)c1ccn(C)n1)c1ccco1 [A4.186]
IC50 (Table 4, starred values = ID50, read-out: ID50 APN (values marked with *)): 323 µM

Structure (SMILES): CCCOC(=O)c1cc(-c2ccc(/C=C3\C(=O)N(CCO)C(=O)C(C#N)=C3C)o2)ccc1Cl [A3.270]
IC50 [2]: 54 µM

Structure (SMILES): CCCOc1[nH]c(/N=C/c2ccccc2)c(C#N)c1C#N [A5.004]
IC50 (Table 5, unstarred values, read-out: IC50APN): 20 µM

Structure (SMILES): O=C(N/N=C/C=C\c1ccco1)c1ccco1 [A4.036]
IC50 [4]: 16 µM

Structure (SMILES): Cc1nc(NC(C)C(=O)O)c2nc(C)oc2n1 (centres unmarked) [A3.290]
IC50 [2]: 65.8 µM

Structure (SMILES): CC1=C(C#N)C(=O)N(CCO)C(=O)/C1=C\c1ccc(-c2ccc(C)c(Cl)c2)o1 [A3.322]
IC50 [2]: 125 µM

Structure (SMILES): CCCCc1noc2c1/C(=N/O)CC(c1ccccc1)C2 (centres unmarked) [A2.001]
IC50 (Table 2, read-out: IC50APN): 2.2 µM

Now from value to molecule:

IC50 [2]: 20 µM
Structure (SMILES): CN(C)c1ccc(C2C3C(=O)N(c4ccccc4)C(=O)C3ON2c2ccc(Cl)cc2)cc1 (centres unmarked) [A3.104]

IC50 [3]: 65.1 µM
Structure (SMILES): O=c1cc(CSc2nnc(-c3ccco3)c(-c3ccco3)n2)c2ccccc2[nH]1 [A9.107]

IC50 [4]: 5.1 µM
Structure (SMILES): CCN(CC)c1ccc(/C=C(/NC(=O)c2ccccc2)C(=O)N/N=C/c2cc(I)c(O)c(I)c2)cc1 [A4.004]

IC50 [5]: 161 µM
Structure (SMILES): COc1cc(C(=O)NCC(=O)N/N=C\c2ccc(C)o2)cc(OC)c1OC [A3.335]

IC50 [2]: 58.4 µM
Structure (SMILES): CCOc1ccccc1NC(=O)c1c(NCc2cccc(OC)c2)sc2c1CCC2 [A3.279]

IC50 [1]: 68.9 µM
Structure (SMILES): Cc1ccc(C(=O)N/C(=C\c2ccco2)C(=O)N2CCSCC2)cc1C [A9.109]

IC50 [2]: 44.2 µM
Structure (SMILES): O=C(/C=C/c1ccco1)Nc1cccc(C(=O)O)c1 [A3.240]

IC50 [2]: 21.6 µM
Structure (SMILES): Cc1cccc(C)c1Nc1c(-c2ccccc2NC(=O)Nc2cccc(Cl)c2)nc2c(C(=O)NCC(C)C)cccn12 [A3.121]

IC50 [4]: 19.9 µM
Structure (SMILES): COc1ccc(/C(C)=N/NC(=O)CNC(=O)/C=C\c2ccco2)cc1OC [A4.053]

IC50 [4]: 23.6 µM
Structure (SMILES): O=C(N/N=C/c1cc(Br)c(O)c(Br)c1O)/C(=C\c1ccc2c(c1)OCO2)NC(=O)c1ccccc1 [A4.073]

IC50 [5]: 66 µM
Structure (SMILES): COc1ccc(CSCC(=O)N/N=C/c2ccco2)cc1 [A3.291]

IC50 [4]: 34.7 µM
Structure (SMILES): O=C(Nc1ccccc1C(=O)N/N=C/c1ccco1)c1ccccc1Cl [A4.109]

IC50 (Table 13, read-out: IC50APN): 47.2 µM
Structure (SMILES): CC1=C(C#N)C(=O)N(CC(C)O)C(=O)/C1=C/c1ccc(-c2ccc(Br)cc2)o1 (centres unmarked) [A13.021]

IC50 [4]: 34.7 µM
Structure (SMILES): O=C(N/N=C/c1ccco1)c1cccc(I)c1 [A4.111]

IC50 [1]: 23.3 µM
Structure (SMILES): O=C1c2cccc3c(Br)c([N+](=O)[O-])cc(c23)C(=O)N1c1cccc([N+](=O)[O-])c1 [A9.062]

IC50 (Table 12, read-out: IC50APN): 6.7 µM
Structure (SMILES): CCc1cccc(CC)c1NC(=S)N/N=C1\C(=O)N(CN2CC(C)CC(C)C2)c2ccccc21 (centres unmarked) [A12.010]

IC50 [1]: 15.2 µM
Structure (SMILES): COC(=O)c1cc(-c2ccc(/C=C3\C(=O)N(CCCO)C(=O)C(C#N)=C3C)o2)ccc1Cl [A9.036]

IC50 [2]: 19 µM
Structure (SMILES): O=C(N/C(=C\c1ccco1)C(=O)N1CCCC(CO)C1)c1ccccc1 (centres unmarked) [A3.094]

IC50 [5]: 33.8 µM
Structure (SMILES): Cc1cccc(C(=O)Nc2ccc(C(=O)N/N=C/c3ccc4c(c3)OCO4)cc2)c1 [A3.203]

IC50 [1]: 21.6 µM
Structure (SMILES): Cc1cccc(C)c1Nc1c(-c2ccccc2NC(=O)Nc2cccc(Cl)c2)nc2c(C(=O)NCC(C)C)cccn12 [A9.055]
